Measurements as given in ChEMBL document CHEMBL4602644, “Synthesis of PJOV56, a new quinoxalinyl-hydrazone derivative able to induce autophagy and apoptosis in colorectal cancer cells, and related compounds” (Bioorg Med Chem Lett, 2020).
Active and inactive are the calls of the source. The rule behind the calls is not given here.

Tests used:
HCT-116 [1] = assay: Cytotoxicity against human HCT116 cells assessed as cell growth inhibition at 5 ug/ml measured after 72 hrs by MTT assay relative to control; type: functional; details: HCT-116, 72 h, read-out: GI
HL-60 = assay: Cytotoxicity against human HL60 cells assessed as reduction in cell viability measured after 72 hrs by MTT assay; type: functional, cell-based; details: HL-60, 72 h
HCT-116 [2] = assay: Cytotoxicity against human HCT116 cells assessed as reduction in cell viability measured after 48 hrs by MTT assay; type: functional, cell-based; details: HCT-116, 48 h
HCT-116 [3] = assay: Induction of morphological changes in human HCT116 cells assessed as increase in cell size at 1.5 to 6 uM measured after 48 hrs by propidium iodide staining based flow cytometry; type: functional
HCT-116 [4] = assay: Induction of autophagy in human HCT116 cells increase in LC3A/B-II level at 3 to 6 uM measured after 48 hrs by Western blot analysis; type: functional, cell-based
HCT-116 [5] = assay: Induction of apoptosis in human HCT116 cells assessed as late apoptotic cells at 3 uM measured after 48 hrs by annexinV-PE/7-AAD staining based flow cytometric analysis (reference value: 0.18 %); type: functional
HCT-116 [6] = assay: Induction of apoptosis in human HCT116 cells assessed as live cells at 6 uM measured after 48 hrs by annexinV-PE/7-AAD staining based flow cytometric analysis (reference value: 91.42 %); type: functional
HCT-116 [7] = assay: Induction of apoptosis in human HCT116 cells assessed as early apoptotic cells at 6 uM measured after 48 hrs by annexinV-PE/7-AAD staining based flow cytometric analysis (reference value: 6.53 %); type: functional
HCT-116 [8] = assay: Induction of apoptosis in human HCT116 cells assessed as necrotic cells at 6 uM measured after 48 hrs by annexinV-PE/7-AAD staining based flow cytometric analysis (reference value: 0.16 %); type: functional
HCT-116 [9] = assay: Induction of apoptosis in human HCT116 cells assessed as […] in cleaved caspase 7 expression at 3 to 6 uM measured after 48 hrs by Western blot analysis; type: functional, cell-based
HCT-116 [10] = assay: Disruption of membrane integrity in human HCT116 cells assessed as decrease in viable cells at 3 uM measured after 48 hrs by propidium iodide staining based flow cytometry relative to control; type: functional
HCT-116 [11] = assay: Induction of apoptosis in human HCT116 cells assessed as late apoptotic cells at 6 uM measured after 48 hrs by annexin-V staining based flow cytometry (reference value: 0.34 %); type: functional
HCT-116 [12] = assay: Induction of DNA fragmentation in human HCT116 cells at 6 uM measured after 48 hrs by propidium iodide staining based flow cytometry relative to control; type: functional
HCT-116 [13] = assay: Cell cycle arrest in human HCT116 cells assessed as accumulation at G2/M phase at 1.5 uM measured after 48 hrs by propidium iodide staining based flow cytometry (reference value: 24.98 %); type: functional
HCT-116 [14] = assay: Cell cycle arrest in human HCT116 cells assessed as accumulation at G2/M phase at 3 uM measured after 48 hrs by propidium iodide staining based flow cytometry (reference value: 24.98 %); type: functional
HCT-116 [15] = assay: Cell cycle arrest in human HCT116 cells assessed as accumulation at G0/G1 phase at 6 uM measured after 48 hrs by propidium iodide staining based flow cytometry (reference value: 41.67 %); type: functional
HCT-116 [16] = assay: Cell cycle arrest in human HCT116 cells assessed as accumulation at G2/M phase at 6 uM measured after 48 hrs by propidium iodide staining based flow cytometry (reference value: 24.98 %); type: functional

Which results are given for `C(=N\Nc1cnc2ccccc2n1)/c1ccccn1`?
inhibition of growth at 5 µg/mL (HCT-116 [1]): 80.4%; IC50 (HL-60): 820 nM; IC50 (HCT-116 [2]): 3040 nM; Activity (HCT-116 [3]): Active; Activity (HCT-116 [4]): Active; Activity (HCT-116 [5]): 2.55%; Activity (HCT-116 [6]): 66.2%; Activity (HCT-116 [7]): 8.28%; Activity (HCT-116 [8]): 7.49%; Activity (HCT-116 [9]): Active; Activity (HCT-116 [10]): 90.45%; Activity (HCT-116 [11]): 25.6%; Activity (HCT-116 [12]): 3.89%; Activity (HCT-116 [13]): 29.99%; Activity (HCT-116 [14]): 30.19%; Activity (HCT-116 [15]): 64.85%; Activity (HCT-116 [16]): 5.8%
